Measured values as given in ChEMBL document CHEMBL1154275, “Synthesis and biological evaluation of new heterocyclic quinolinones as anti-parasite and anti-HIV drug candidates” (Bioorg Med Chem Lett, 2009).

Experiments:
[1] = system: Human immunodeficiency virus 1; test: Antiviral activity against HIV1 3B infected in human MT4 cells after 4 days by MTT assay; type: functional, organism-based
[2] = Selectivity index, ratio of IC50 for human THP1 cells to IC50 for Plasmodium falciparum; type: toxicity, cell-based, THP-1
[3] = (§1) Cytotoxicity against human MT4 cells after 4 days by MTT assay; type: cell-based; details: MT4 cells
Leishmania donovani [4] = test: Antileishmanial activity against Leishmania donovani MHOM/IN/78/80/DD8 promastigote by alamar blue method; type: functional, organism-based
Plasmodium falciparum = test: Antimalarial activity against chloroquine, pyrimethamine, proguanil-resistant Plasmodium falciparum infected in human erythrocytes after 48 hrs by flow cytometry; type: functional, organism-based
Leishmania donovani [5] = test: Antileishmanial activity against Leishmania donovani MHOM/IN/78/80/DD8 amastigote by alamar blue method; type: functional, organism-based
[6] = system: Human immunodeficiency virus 2; test: Antiviral activity against HIV2 ROD infected in human MT4 cells after 4 days by MTT assay; type: functional, organism-based, ISOLATE ROD
THP-1 = test: Cytotoxicity against human THP1 cells after 72 hrs by propidium iodide staining-based flow cytometry; type: cell-based
Trichomonas vaginalis = test: Antitrichomonal activity against Trichomonas vaginalis TVR79 after 48 hrs by optical microscopy; type: functional, organism-based
MT4 = test: as §1; type: cell-based; details: mt4, 96 h
[7] = Human immunodeficiency virus 1, 3B, MT4, 96 h, read-out: EC50
[8] = Leishmania donovani, MHOM/IN/78/80/DD8, read-out: IC50
[9] = Plasmodium falciparum, 48 h, read-out: IC50
[10] = Human immunodeficiency virus 2, ISOLATE ROD, MT4, 96 h, read-out: EC50
[11] = Homo sapiens, THP-1, 72 h, read-out: IC50
[12] = Trichomonas vaginalis, TVR79, 48 h, read-out: IC50

| Structure (SMILES) | EC50 [1, 7] | selectivity index ([2]; human, THP-1 cells) | CC50 at 96 h [3] | IC50 (Leishmania donovani [4]; [8]) | IC50 (Plasmodium falciparum; [9]) | IC50 (Leishmania donovani [5]; [8]) | EC50 [6, 10] | IC50 (THP-1; [11]) | IC50 (Trichomonas vaginalis; [12]) | EC50 ([1]; mt4) | selectivity index ([2]; thp-1) | CC50 (MT4) | IC50 (Leishmania donovani [4]) | IC50 (Plasmodium falciparum) | IC50 (Leishmania donovani [5]) | EC50 ([6]; mt4) | IC50 (THP-1; thp-1) | IC50 (Trichomonas vaginalis) |
| --- | --- | --- | --- | --- | --- | --- | --- | --- | --- | --- | --- | --- | --- | --- | --- | --- | --- | --- |
| CC1(C)OC(=O)C(=CNc2ccc([N+](=O)[O-])cc2)C(=O)O1 | > 21.2 µM | > 6.2 | > 21.2 µM | > 100 µM | 40 µM | > 100 µM | > 21.2 µM | > 250 µM | > 100 µM | – | – | – | – | – | – | – | – | – |
| CC1(C)OC(=O)C(=CNc2ccc3ncsc3c2)C(=O)O1 | > 39.1 µM | > 8.3 | > 39.1 µM | > 200 µM | 60 µM | 40 µM | > 39.1 µM | > 500 µM | > 200 µM | – | – | – | – | – | – | – | – | – |
| O=c1cc[nH]c2ccc([N+](=O)[O-])cc12 | > 356 µM | 2.5 | > 356 µM | > 200 µM | 52 µM | > 200 µM | > 356 µM | 130 µM | > 200 µM | – | – | – | – | – | – | – | – | – |
| O=c1cc[nH]c2ccc3ncsc3c12 | – | – | – | – | – | – | – | – | – | ND(Insoluble) | ND(Insoluble) | ND(Insoluble) | ND(Insoluble) | ND(Insoluble) | ND(Insoluble) | ND(Insoluble) | ND(Insoluble) | ND(Insoluble) |
| CC1(C)OC(=O)C(=CNc2cccc(-c3nc4ccccc4s3)c2)C(=O)O1 | > 190 µM | 4 | > 190 µM | > 200 µM | 30 µM | > 200 µM | > 190 µM | 115 µM | > 200 µM | – | – | – | – | – | – | – | – | – |
| CCOC(=O)C(=CNc1ccc([N+](=O)[O-])cc1)C(=O)OCC | ≥ 198 µM | – | ≥ 250 µM | > 250 µM | > 250 µM | > 100 µM | ≥ 121 µM | > 125 µM | > 125 µM | – | Not Active | – | – | – | – | – | – | – |
| CC1(C)OC(=O)C(=CNc2ccc3[nH]c(=O)[nH]c3c2)C(=O)O1 | > 412 µM | – | > 412 µM | > 200 µM | > 500 µM | > 200 µM | > 412 µM | > 500 µM | > 200 µM | – | Not Active | – | – | – | – | – | – | – |
| O=c1cc[nH]c2c([N+](=O)[O-])cccc12 | > 71.6 µM | – | > 71.6 µM | > 200 µM | > 500 µM | > 200 µM | > 71.6 µM | > 500 µM | > 200 µM | – | Not Active | – | – | – | – | – | – | – |
| O=c1cc[nH]c2cc3c(cc12)OCCO3 | > 356 µM | 2.3 | > 356 µM | > 200 µM | 50 µM | > 200 µM | > 356 µM | 115 µM | > 200 µM | – | – | – | – | – | – | – | – | – |
| Cc1nc2ccc3[nH]ccc(=O)c3c2s1 | > 405 µM | – | > 405 µM | > 200 µM | – | > 200 µM | > 405 µM | > 500 µM | > 200 µM | – | – | – | – | – | – | – | – | – |
| O=c1cc[nH]c2ccc3nn[nH]c3c12 | – | – | – | – | – | – | – | – | – | ND(Insoluble) | ND(Insoluble) | ND(Insoluble) | ND(Insoluble) | ND(Insoluble) | ND(Insoluble) | ND(Insoluble) | ND(Insoluble) | ND(Insoluble) |
| O=c1cc[nH]c2ccc3[nH]ncc3c12 | – | – | – | – | – | – | – | – | – | ND(Insoluble) | ND(Insoluble) | ND(Insoluble) | ND(Insoluble) | ND(Insoluble) | ND(Insoluble) | ND(Insoluble) | ND(Insoluble) | ND(Insoluble) |
| CN(C)c1nc2cc3[nH]ccc(=O)c3cc2o1 | > 324 µM | > 3.1 | > 324 µM | > 250 µM | 40 µM | > 100 µM | > 324 µM | > 125 µM | > 125 µM | – | – | – | – | – | – | – | – | – |
| O=c1cc[nH]c2c(-c3nc4ccccc4s3)cccc12 | > 8.6 µM | – | 8.6 µM | > 200 µM | > 500 µM | > 200 µM | ≥ 1.4 µM | > 500 µM | > 200 µM | – | Not Active | – | – | – | – | – | – | – |
| Nc1ccc2[nH]ccc(=O)c2c1 | > 631 µM | > 5.5 | ≥ 631 µM | > 200 µM | 90 µM | > 200 µM | ≥ 501 µM | > 500 µM | > 200 µM | – | – | – | – | – | – | – | – | – |
| Cc1nc2ccc3c(c(=O)ccn3C)c2s1 | > 341 µM | – | > 341 µM | > 100 µM | > 250 µM | > 100 µM | > 341 µM | 115 µM | > 100 µM | – | Not Active | – | – | – | – | – | – | – |
| CC1(C)OC(=O)C(=CNc2cccc([N+](=O)[O-])c2)C(=O)O1 | > 251 µM | > 4.1 | > 251 µM | > 100 µM | 60 µM | > 100 µM | > 251 µM | > 250 µM | > 100 µM | – | – | – | – | – | – | – | – | – |
| CC1(C)OC(=O)C(=CNc2ccccc2[N+](=O)[O-])C(=O)O1 | > 411 µM | – | ≥ 411 µM | > 200 µM | > 500 µM | > 200 µM | ≥ 260 µM | > 500 µM | > 200 µM | – | Not Active | – | – | – | – | – | – | – |
| CC1(C)OC(=O)C(=CNc2ccc3c(c2)OCCO3)C(=O)O1 | > 428 µM | – | > 428 µM | > 200 µM | > 500 µM | > 200 µM | > 428 µM | > 500 µM | > 200 µM | – | Not Active | – | – | – | – | – | – | – |
| Cc1nc2ccc(NC=C3C(=O)OC(C)(C)OC3=O)cc2s1 | > 317 µM | > 4.1 | > 317 µM | > 250 µM | 60 µM | > 200 µM | > 317 µM | > 250 µM | > 100 µM | – | – | – | – | – | – | – | – | – |
| CC1(C)OC(=O)C(=CNc2ccc3[nH]nnc3c2)C(=O)O1 | > 68.1 µM | – | > 68.1 µM | > 200 µM | > 500 µM | > 200 µM | > 68.1 µM | > 500 µM | > 200 µM | – | Not Active | – | – | – | – | – | – | – |
| CC1(C)OC(=O)C(=CNc2ccccc2-c2nc3ccccc3s2)C(=O)O1 | > 41.6 µM | – | 41.6 µM | > 250 µM | > 250 µM | > 100 µM | > 41.6 µM | > 250 µM | > 250 µM | – | Not Active | – | – | – | – | – | – | – |
| CC1(C)OC(=O)C(=CNc2ccc3c(c2)OCO3)C(=O)O1 | ≥ 118 µM | 25 | > 430 µM | > 100 µM | 10 µM | 20 µM | > 430 µM | 250 µM | > 100 µM | – | – | – | – | – | – | – | – | – |
| CC1(C)OC(=O)C(CNc2ccc3c(c2)CCC3)C(=O)O1 | > 292 µM | – | > 292 µM | > 200 µM | > 500 µM | > 200 µM | > 292 µM | > 500 µM | > 200 µM | – | Not Active | – | – | – | – | – | – | – |
| CC1(C)OC(=O)C(=CNc2ccc3cn[nH]c3c2)C(=O)O1 | > 436 µM | – | > 436 µM | > 100 µM | > 250 µM | > 100 µM | > 436 µM | > 250 µM | > 100 µM | – | Not Active | – | – | – | – | – | – | – |
| CN(C)c1nc2ccc(NC=C3C(=O)OC(C)(C)OC3=O)cc2o1 | > 378 µM | > 6.25 | > 378 µM | > 100 µM | 40 µM | > 100 µM | > 378 µM | > 250 µM | > 100 µM | – | – | – | – | – | – | – | – | – |
| C[C@@H]1[C@H](O)[C@@H](C)/C=C/C=C/C=C/C=C/C=C/C=C/C=C/[C@H](O[C@@H]2O[C@H](C)[C@@H](O)[C@H](N)[C@@H]2O)C[C@@H]2O[C@](O)(C[C@@H](O)C[C@@H](O)[C@H](O)CC[C@@H](O)C[C@@H](O)CC(=O)O[C@H]1C)C[C@H](O)[C@H]2C(=O)O [AMPHOTERICIN B] | – | – | – | – | – | 0.1 µM | – | – | – | – | – | – | – | – | – | – | – | – |
| C[C@H]1c2cccc(O)c2C(=O)C2=C(O)[C@]3(O)C(=O)C(C(N)=O)=C(O)[C@@H](N(C)C)[C@@H]3[C@@H](O)[C@@H]21 [DOXYCYCLINE] | – | 3.1 | – | – | – | – | – | 20 µM | – | – | – | – | – | – | – | – | – | – |
| Cc1ncc([N+](=O)[O-])n1CCO [METRONIDAZOLE] | – | – | – | – | – | – | – | > 500 µM | 2.7 µM | – | – | – | – | – | – | – | – | – |
